{
  "source": "patent US20230106592A1",
  "about": "“METHOD FOR TREATING CANCER USING A COMBINATION OF DNA DAMAGING AGENTS AND ATR INHIBITORS” (Vertex Pharmaceuticals Incorporated, priority 2015, published 2023)",
  "key": {"[1]": {"assay": "Phase I trial, combination with cisplatin: pharmacokinetics", "assay_type": "in vivo, human", "excerpt": "Non-DLT grade 3-4 treatment-related adverse events occurred in 11 pts, including nausea, cytopenia, hypotension, hypoalbuminemia, hypokalemia, elevated liver function tests (LFTs), and drug hypersensitivity. The maximum tolerated combination dose was not reached."}, "[2]": {"assay": "Phase I trial, combination with gemcitabine: pharmacokinetics", "assay_type": "in vivo, human", "conditions": "combination with gem", "excerpt": "Grade 3/4 treatment-related adverse events (AEs) occurred in 25 pts. DLTs occurred in 4 pts: 2 pts in DL4 (grade 3 thrombocytopenia; grade 3 elevated ALT and fatigue); 1 pt in DL5 (grade 3 elevated AST); 1 pt in DL6, (grade 3 elevated AST, ALT and grade 2 elevated ALP). The maximum tolerated dose was not reached but dose escalation was stopped at DL10 per investigator recommendation. […] The primary tumors in these four patients were breast cancer, head and neck cancer, NSCLC, and carcinoma of unknown primary origin. A pt with breast cancer in DL8 achieved PR at the 1st assessment and the pt remains on trial >133 days. Two (2) pts had prolonged stable disease (SD) responses. The tumor response and duration of progression free survival (PFS) are shown in FIGS. 16 and 17, respectively. For many patients, the duration of PFS extended beyond the 12-week primary endpoint. […] Progression-free survival (PFS) of 415 days in 1 patient with renal cancer(papillary carcinoma) and >191 days (pt with GIST) were observed."}},
  "data": [
    {"compound": "CNCc1ccc(-c2cc(-c3nc(-c4ccc(S(=O)(=O)C(C)C)cc4)cnc3N)on2)cc1", "note": "[Compound A-2]", "values": [
      {"measurement": "half-life", "setting": "[1]; both sexes, human, in vivo, intravenous, combination with CIS, read-out: Terminal elimination half-life (converted)", "result": "~960", "unit": "min"},
      {"measurement": "PK across the dosage ranges", "setting": "[1]; combination with CIS, 90-210 mg/m^2", "result": "proportional"},
      {"measurement": "Effect of CIS on the pharmacokinetics of Compound A-2", "setting": "[1]; in vivo", "result": "no effect"},
      {"measurement": "half-life", "setting": "[2]; both sexes, human, in vivo, intravenous, across DLs, read-out: Terminal elimination half-life (converted)", "result": "~960", "unit": "min"},
      {"measurement": "Exposure based on Cmax and AUC0-∞", "setting": "[2]", "result": "relatively linear"}
    ]}
  ]
}
